Assay [1] deals with BT474 cells. In words: Measurement of lipid peroxidation (BODIPY C11, flow cytometry). The format is cell-based, human. The following applies: with RSL3. On the procedure: (§1) FIG. 2 A-E. mTORC1, instead of mTORC2, suppresses ferroptosis. (A) MDA-MB-453 and BT474 were treated with CCI-779 (0.5 μM), RSL3 (1 μM for MDA-MB-453 cells and 0.5 μM for BT474 cells), and Fer-1 (1 μM) as indicated. (B) Cells were seeded in 6-well plate, 4×10^5 cells per well and incubated overnight. MDA-MB-453 and BT474 cells were treated as indicated. CCI-779, 0.5 μM; RSL3, 1 μM for MDA-MB-453 cells and 0.5 μM for BT474 cells; Fer-1, 1 μM. Cells were stained with 5 μM C1I-BODIPY followed by flow cytometry after 8 h-treatment. (C) 3D spheroids were treated as indicated. CCI-779, 0.5 μM; RSL3, 0.5 μM; Fer-1, 1 μM. Top panel, dead cells were stained by SYTOX Green (scale bar, 100 μm). Bottom panel, cell viability was assayed by measuring cellular ATP levels. (D) Cells expressing shRNAs targeting RPTOR or RICTOR were treated as indicated. CCI-779, 0.5 μM; RSL3, 0.5 μM; Fer-1, 1 μM. (E) Lipid peroxidation of samples as in panel D were measured.
(§2) FIG. 7 A-J. PI3K-AKT-mTOR signaling regulates ferroptosis sensitivity. (A) Cells were treated as indicated. GDC-0941, 2 μM; MK-2206, 2 μM; RSL3, 1 μM; Fer-1, 1 μM. Lipid peroxidation was measured. (B) Cells were treated with indicated conditions. Torin, 1 μM; RSL3, 1 μM for MDA-MB-453 cells and 0.5 μM for BT474 cells; Fer-1, 1 μM. Cell death was measured. (C) Cells were treated with indicated conditions. RSL3, 10 μM for MCF cells and PC-3 cells, 5 μM for T47D cells, 1 μM for HepG2 cells; Torin, 1 μM; CCI-779, 0.5 μM. (D) Cells were treated as indicated. CCI-779, 0.5 μM; Torin, 1 μM; Fer-1, 1 μM. Cell death was staining by propidium iodide (PI) (red) or Sytox Green (green) (scale bar, 100 μm). (E-F) 3D spheroids for MDA-MB-453 cells and MCF7 cells were treated as indicated. CCI-779, 0.5 μM; RSL3, 1 μM for MDA-MB-453 cells and 5 μM for MCF7 cells; Fer-1, 1 μM. Top panels, cell death staining (scale bar, 100 m). Bottom panels, cell viability. (G) MDA-MB-453 cells were treated as indicated for 24 h. RSL3, 1 μM; CCI-779, 0.5 μM; GDC-0941, 2 μM; MK-2206, 2 μM; Dabrafenib, 2 μM; SCH772984, 2 μM; Fer-1, 1 μM. (H) Western blot was performed to detect RPTOR and RICTOR knockdown efficiency. (I) HT1080 cells and MDA-MB-231 cells (both with wild-type PI3K-AKT-mTOR pathway) were treated as indicated. RSL3, 0.1 μM for HT1080 and 0.25 μM for MDA-MB-231; Torin, 1 μM; CCI-779, 0.5 μM; Fer-1, 1 μM. Cell death was measured. (J) Two lines of PI3K-AKT-mTOR pathway wild-type cells (HT1080 and MDA-MB-231) and two lines of cells harboring activating mutation of the pathway (BT474 and MDA-MB-453) were treated as indicated. RSL3, 0.25 μM; Fer-1, 1 μM. Western blot was performed to detect the level of pT389 S6K.
(§3) FIG. 11 A-H. SCD1 protects cells against ferroptosis. (A) Cells were pretreated cells with 5 μM CAY10566 overnight. Cells were treated as indicated. RSL3, 1 μM for MDA-MB-453 and 0.5 μM for BT474; Fer-1, 1 μM; CAY10566, 5 μM; Fer-1, 1 μM. (B) Western blot, measuring the SCD knockout efficiency in BT474, MDA-MB-453 and MCF7 cells. (C) MCF cells (sgCtrl, sgSCD #1 and sgSCD #2) were treated as indicated. RSL3, 5 μM; Fer-1, 1 μM. (D) Cells were treated as indicated. RSL3, 1 μM for MDA-MB-453 cells and 0.5 μM for BT474 cells; Fer-1, 1 μM. (E) Cells were treated as indicated. RSL3, 1 μM for MDA-MB-453 cells and 0.5 μM for BT474 cells; Fer-1, 1 μM; CCI-779, 0.5 μM; GDC-0941, 2 μM; MK-2206, 2 μM. (F) SCD1 was overexpressed in BT474 cells. Cells were treated as indicated. RSL3, 0.5 μM; CCI-779, 0.5 μM. Lipid peroxidation was measured. (G) SCD1 was overexpressed in A549 cells and determined by western blot. Cells were treated as indicated. RSL3, 0.25 μM; CCI-779, 0.5 μM. Lipid peroxidation and cell death were measured 6 h and 24 h after treatment, respectively. (H) SCD1 was overexpressed in BT474 cells harboring SREBF1 knockout. SCD1 and SREBP1 level were determined by western blot. Cells were treated as indicated. RSL3, 0.5 μM; CCI-779, 0.5 μM; Fer-1, 1 μM.
(§4) Lipid peroxidation was analyzed by flow cytometry. […]
For orientation: A flow cytometer gives signals particle by particle.

The test system of assay [2] is MDA-MB-453 cells. The assay is described as above. To be noted: with RSL3. It counts as cell-based, human. On the procedure: as §1, §2, §3, §4

Each structure is given as a SMILES string.

In the case of `CCCc1cc(-c2nc(-c3ccc(C)cc3)cs2)ccn1` [Fatostatin A], the “sensitization to lipid peroxidation” value in assay [1] and in assay [2] was “sensitized” each time.

On to `CO[C@H]1C[C@@H]2CC[C@@H](C)[C@@](O)(O2)C(=O)C(=O)N2CCCC[C@H]2C(=O)O[C@H]([C@H](C)C[C@@H]2CC[C@@H](OC(=O)C(C)(CO)CO)[C@H](OC)C2)CC(=O)[C@H](C)/C=C(\C)[C@@H](O)[C@@H](OC)C(=O)[C@H](C)C[C@H](C)/C=C/C=C/C=C/1C` [CCI-779, Temsirolimus], for which the “sensitization to lipid peroxidation” value in assay [1] and in assay [2] was “sensitize” each time.

As for `NC1(c2ccc(-c3nc4ccn5c(=O)[nH]nc5c4cc3-c3ccccc3)cc2)CCC1` [MK-2206], the “sensitization to lipid peroxidation” value in assay [1] and in assay [2] was “sensitized” throughout.

In the case of `Cc1nnc(-c2ccc(N3CCC(Oc4cc(F)ccc4Cl)CC3)nn2)o1` [CAY10566], the “sensitization to lipid peroxidation” value in assay [1] and in assay [2] was “sensitized the effect of RSL3” in each case.

In the case of `CS(=O)(=O)N1CCN(Cc2cc3nc(-c4cccc5[nH]ncc45)nc(N4CCOCC4)c3s2)CC1` [GDC-0941], the “sensitization to lipid peroxidation” value in assay [1] and in assay [2] was “sensitized” in each case.

The values are drawn from US20230414626A1, “INDUCTION OF FERROPTOSIS FOR CANCER THERAPY” (Memorial Sloan Kettering Cancer Center, priority 2020, published 2023).
